{"source": "patent US20260234129A1", "about": "“NOVEL IMIDAZOLE DERIVATIVE AND USE THEREOF” (PELEMED CO., LTD., priority 2023, published 2026)", "key": {"FLT3(D835Y)": {"molecular_target": "T1, FLT3(D835Y) (Homo sapiens, UniProt P36888, D835Y)", "T1 construct": "Recombinant proteins containing FLT3 and FLT3(D835Y) domains were purchased from Promega; purchased Promega V4514", "test": "ADP-Glo kinase assay FLT3 D835Y", "format": "biochemical", "conditions": "recombinant FLT3(D835Y), 120 minutes at room temperature, read-out: Enzyme (IC50) FLT3 D835Y", "description": "(§1) FLT3 activity inhibition was measured using the ADP-Glo kinase assay method (Promega, cat #V9101). The ADP-Glo kinase assay method is a luminescent ADP detection assay method that provides a homogeneous, high-throughput screening method for measuring kinase activity by quantifying the amount of ADP produced during the kinase reaction.\n(§2) The assay was performed in two steps. First, after the kinase reaction, an equal volume of ADP-Glo™ reagent was added to terminate the kinase reaction and deplete any remaining ATP. Second, a kinase detection reagent was added to convert ADP to ATP, and simultaneously the newly synthesized ATP was measured via the luciferase/luciferin reaction. The light produced was measured using a luminometer.\nRecombinant proteins containing FLT3 and FLT3(D835Y) domains were purchased from Promega (cat #V4064, cat #V4514), respectively. According to the manufacturer's instructions, the optimal enzyme, ATP, and substrate concentrations were optimized using the ADP-Glo™ kinase assay method (Promega, USA). […] Finally, the detection reagent (kinase detection reagent, 10 μl) was added, followed by reaction at room temperature for 30 minutes, and the phosphorylation of the substrate peptide was measured by detecting the luciferase signal (integration time 0.5~1 sec) using a SpectraMax ID5 reader (Molecular Devices LLC., San Jose, CA, USA)."}, "[1]": {"tested_on": "MV4-11 cells (FLT3-ITD-expressing AML cell line)", "test": "Cell proliferation inhibition, Alamar Blue", "format": "cell-based, human", "conditions": "Homo sapiens, MV4-11, 72 hours of compound treatment, read-out: Cellular (GI50) MV4-11", "description": "(§3) The cell proliferation inhibition experiment on acute myeloid leukemia (AML) cell lines was performed using FL3-ITD-expressing AML cell line MV4-11, BaF3-ITD-FLT3 F691L cell line, and BaF3-ITD-FLT3 D835Y cell line to test FLT3 inhibitory activity. All cell lines were human-derived cell lines, and the sources and culture conditions for each cell line are as follows.\n(§4) Cell viability was assessed by a resazurin redox-based assay using the Alamar Blue Assay kit (Invitrogen, USA). Specifically, MV4-11, BaF3-ITD-FLT3-F691L, and BaF3-ITD-FLT3-D835Y cells were plated in 384-well plates at 8,000 cells in 45 μL of medium. As a negative control, dimethyl sulfoxide (DMSO) was added together with the compound. After three days (72 hours) of compound treatment, 5 μL of the Alamar Blue kit reagent was added to each well of the 384-well plates, followed by incubation at 37° C. for 2 hours in a humidified CO2 incubator. After incubation, fluorescence intensity (Flu) was measured at 544 nm and 590 nm using a SpectraMax iD3 Multi Mode Microplate Reader (Molecular Devices, ID3-STD)."}, "FLT3": {"molecular_target": "T2, FLT3 (Homo sapiens, UniProt P36888)", "T2 construct": "Recombinant proteins containing FLT3 and FLT3(D835Y) domains were purchased from Promega; purchased Promega V4064", "T2 sequence (P36888 610-943 limits assumed)": "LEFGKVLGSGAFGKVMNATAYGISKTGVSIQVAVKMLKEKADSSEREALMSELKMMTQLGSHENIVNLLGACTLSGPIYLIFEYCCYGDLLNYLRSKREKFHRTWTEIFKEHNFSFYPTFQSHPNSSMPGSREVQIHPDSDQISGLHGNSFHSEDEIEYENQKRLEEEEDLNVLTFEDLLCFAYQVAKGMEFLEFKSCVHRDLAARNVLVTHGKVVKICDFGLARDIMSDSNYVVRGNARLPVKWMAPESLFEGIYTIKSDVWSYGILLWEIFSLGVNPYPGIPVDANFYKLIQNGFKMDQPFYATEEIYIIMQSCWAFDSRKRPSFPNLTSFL", "test": "ADP-Glo kinase assay FLT3 WT", "format": "biochemical", "conditions": "recombinant FLT3, 120 minutes at room temperature, read-out: Enzyme (IC50) FLT3 WT", "description": "as §1, §2\nRecombinant proteins containing FLT3 and FLT3(D835Y) domains were purchased from Promega (cat #V4064, cat #V4514), respectively. According to the manufacturer's instructions, the optimal enzyme, ATP, and substrate concentrations were optimized using the ADP-Glo™ kinase assay method (Promega, USA). […] Thereafter, ADP-Glo™ reagent (5 μl) was added and reacted for an additional 40 minutes at room temperature. Finally, the detection reagent (kinase detection reagent, 10 μl) was added, followed by reaction at room temperature for 30 minutes, and the phosphorylation of the substrate peptide was measured by detecting the luciferase signal (integration time 0.5~1 sec) using a SpectraMax ID5 reader (Molecular Devices LLC., San Jose, CA, USA)."}, "[2]": {"tested_on": "BaF3-ITD-FLT3 F691L cell line", "test": "Cell proliferation inhibition, Alamar Blue", "format": "cell-based", "conditions": "72 hours of compound treatment, read-out: Cellular (GI50) BaF3-ITD-FLT3 F691L", "description": "as §3, §4"}, "[3]": {"tested_on": "BaF3-ITD-FLT3 D835Y cell line", "test": "Cell proliferation inhibition, Alamar Blue", "format": "cell-based", "conditions": "72 hours of compound treatment, read-out: Cellular (GI50) BaF3-ITD-FLT3 D835Y", "description": "as §3, §4"}}, "data": [{"smiles": "NCCCNC(=O)c1ccc2[nH]nc(-c3nc4ccc(C(=O)N5CCOCC5)cc4[nH]3)c2c1", "note": "[Example 21, N-(3-aminopropyl)-3-(6-(morpholine-4-carbonyl)-1H-benzo[d]imidazol-2-yl)-1H-indazole-5-carboxamide]", "values": [{"measurement": "IC50", "setting": "FLT3(D835Y)", "result": "< 10", "unit": "nM"}, {"measurement": "GI50", "setting": "[1]", "result": "100 to 1000", "unit": "nM"}, {"measurement": "IC50", "setting": "FLT3", "result": "< 10", "unit": "nM"}]}, {"smiles": "N[C@H]1CC[C@H](NC(=O)c2ccc3[nH]nc(-c4nc5ccc(N6CCCCC6)cc5[nH]4)c3c2)C1", "note": "[Example 31, N-((1S,3S)-3-aminocyclopentyl)-3-(6-(piperidin-1-yl)-1H-benzo[d]imidazol-2-yl)-1H-indazole-5-carboxamide]", "values": [{"measurement": "GI50", "setting": "[2]", "result": "10 to 100", "unit": "nM"}, {"measurement": "GI50", "setting": "[3]", "result": "< 10", "unit": "nM"}, {"measurement": "GI50", "setting": "[1]", "result": "< 10", "unit": "nM"}, {"measurement": "IC50", "setting": "FLT3", "result": "< 10", "unit": "nM"}]}, {"smiles": "N[C@H]1CC[C@H](NC(=O)c2ccc3[nH]nc(-c4nc5ccc(-c6ccco6)cc5[nH]4)c3c2)C1", "note": "[Example 80, N-((1S,3S)-3-aminocyclopentyl)-3-(6-(furan-2-yl)-1H-benzo[d]imidazol-2-yl)-1H-indazole-5-carboxamide]", "values": [{"measurement": "GI50", "setting": "[2]", "result": "10 to 100", "unit": "nM"}, {"measurement": "GI50", "setting": "[3]", "result": "< 10", "unit": "nM"}, {"measurement": "GI50", "setting": "[1]", "result": "< 10", "unit": "nM"}]}]}
